Measured values as given in patent publication US9358276B2, “Methods of diagnosing and treating small intestinal bacterial overgrowth (SIBO) and SIBO-related conditions” (Cedars-Sinai Medical Center, priority 1999, dated 2016).

Columns and labels:
intestinal transit = assay: Intestinal transit in multi-fistulated dogs, cumulative % recovery of 99mTc-DTPA; format: in vivo, dog
From the text: The experiments described below are based on a previously described chronic multi-fistulated dog model, employing surgically fistulated male or female mongrel dogs weighing about 25 kg each. (Lin, H. C. et al., Inhibition of gastric emptying by glucose depends on length of intestine exposed to nutrient, Am. J. Physiol. 256:G404-G411 [1989]). The small intestines of the dogs were each about 300 cm long from the pylorus to the ileal-cecal valve. The duodenal fistula was situated 15 cm from the pylorus; the mid-gut fistula was situated 160 cm from the pylorus. Occluding Foley catheters (balloon catheters that are inflated to produce a water-tight seal with the lumenal surface) were placed into the distal limb of a duodenal fistula and a mid-gut fistula, fat or other test agents were administered lumenally to the thus compartmentalized Aproximal≅ section of the gut, i.e., between the fistulas, or to the compartmentalized Adistal≅ section of the gut, i.e., beyond the mid-gut fistula. Perfusate was pumped into a test section through the catheter at a rate of 2 mL/minute. Test agents were administered along with buffer perfusate, but some test agents were administered intravenously, where specifically noted.
Intestinal transit measurements were made by tracking the movement of a liquid marker across the approximately 150 cm intestinal test segment by delivering about 20 μCi ^99mTc chelated to diethyltriamine pentaacetic acid (DTPA)(Cunningham, K. M. et al., Use of technicium-99m (V)thiocyanate to measure gastric emptying of fat, J. Nucl. Med. 32:878-881 [1991]) as a bolus into the test segment after 60 minutes of a 90-minute perfusion. The output from the mid-gut fistula was collected every 5 min thereafter for 30 minutes, which period is illustrated in FIGS. 9-23. Using a matched dose of ^99mTc to represent the original radioactivity (Johansson, C., Studies of gastrointestinal interactions, Scand. J. Gastroenterol. 9(Suppl 28):1-60 [1974]; Zierler, K., A simplified explanation of the theory of indicator dilution for measurement of fluid flow and volume and other distributive phenomena, Bull. John Hopkins 103:199-217 [1958]), the radioactivity delivered into the animal as well as the radioactivity of the recovered fistula output were all measured using a gamma well counter. After correcting all counts to time zero, intestinal transit was calculated as the cumulative percent recovery of the delivered ^99mTc-DTPA. This method has been well validated over the years and appreciated for its advantage of minimal inadvertent marker loss. […] There was a very high level of marker recovery, with 90% of the marker recovered by 30 minutes and 98% of the marker recovered by 45 minutes.

SIBO [1] = assay: Comparison of antibiotic regimes for eradicating SIBO, follow-up lactulose breath hydrogen test (LBHT); format: in vivo, human; conditions: for % Patients with SIBO Eradicated: follow-up LBHT
Method: Subjects were tested after an overnight fast. […] Each breath sample was then analyzed for hydrogen content with a gas chromatograph (Quintron Model DP, Quintron Instrument Co., Division of E.F. Brewer Co, Menomonee Falls, Wis. 53051), standardized using a QuinGas standard as instructed by the manufacturer. Hydrogen peaks were plotted before and after an antimicrobial treatment regimen for comparison. The normal range for the second hydrogen peak was 0 to 20 ppm. Subjects referred to the Cedars-Sinai GI Motility Program for a lactulose breath hydrogen test (LBHT) to assess SIBO were entered into a database. Those that tested positive for SIBO were given antibiotic treatment by their referring physician and in some cases, returned for a follow-up LBHT to assess eradication of SIBO. During the follow-up LBHT, subjects were asked which antibiotic they were given to treat their SIBO. The eradication rate of each antibiotic was evaluated. Of the 771 subjects in the database, 561 (73%) tested positive for SIBO. […] (See Table 1 below). […] None of the commonly used antibiotics was universally successful in eradicating overgrowth.

SIBO [2] = assay: Antibiotic treatment of Crohn's disease subjects with SIBO; format: in vivo, human; conditions: Crohn's subjects; pooled over the named antibiotics
Method: To correct for selection bias, a pilot study was conducted to determine the incidence of SIBO in subjects who had received a suspected diagnosis of Crohn's disease at Cedars-Sinai Medical Center=s IBD Center within the preceding three months.

Q: Which “Transit Across Proximal Gut (Cumulative % Marker Recovered)” value (intestinal transit; Buffer + NE i.v. 50 mg/30 ml/1.5 h, Buffer Control 68.5 ± 5.0, five dogs) does the source give for `NC[C@H](O)c1ccc(O)c(O)c1` [norepinephrine] here?
A: 16.3 ± 3.4^ab %

Q: And the marker recovery (intestinal transit; intravenous norepinephrine 0.12 μg/kg/h + normal saline, Buffer Control 76.9%, n=2)?
A: 13.3%

Q: What does the source list for `Cc1ncc([N+](=O)[O-])n1CCO` [Flagyl, metronidazole]?
A: success in eradicating SIBO, comparison of antibiotics (SIBO [1]; 105 subjects with follow-up LBHT): relatively poor choice by itself; % Patients with SIBO Eradicated (SIBO [1]): 25%; improvement in symptoms, breath test negative after antibiotic (SIBO [2]): 69±27%; improvement in symptoms, subjects remaining positive on breath test after antibiotic (SIBO [2]): 20±0%

Q: How did the “proximal intestinal transit, cumulative % marker recovered” value (intestinal transit; 60 mM oleate distal gut + Propranolol (i.v.) 50 μg/kg/h) turn out when `CC(C)NCC(O)COc1cccc2ccccc12` (stereo not shown) [propranolol] was run?
A: 66.42 ± 8.26%

Q: What about the “proximal intestinal transit, cumulative % marker recovered” value (intestinal transit; 5-HT distal gut + Propranolol (i.v.) 50 μg/kg/h) of the same compound?
A: 63.85 ± 8.76%

Q: What about the marker recovery (intestinal transit; distal gut 5-HT + intravenous propranolol 50 μg/kg/h) of the same compound?
A: 77.7±7.6%

Q: And the marker recovery (intestinal transit; distal gut oleate + intravenous propranolol 50 μg/kg/h)?
A: 72.1±4.7%

Q: What about the marker recovery (intestinal transit; intravenous PYY + intravenous propranolol 50 μg/kg/h) of the same compound?
A: 66.3±3.1%

Q: For `O=C(O)c1cn(C2CC2)c2cc(N3CCNCC3)c(F)cc2c1=O` [Ciprofloxacin, ciprofloxacin], which “% Patients with SIBO Eradicated” value (SIBO [1]) is on record?
A: 50%

Q: And the “improvement in symptoms, breath test negative after antibiotic” value (SIBO [2])?
A: 69±27%
